Laboratory results reported in patent US20130209403A1, “USE OF INHIBITORS OF PHOSPHOLIPASE A2 FOR THE TREATMENT OR PREVENTION OF FLAVIVIRUS INFECTION” (Ruprecht-Karls-Universitaet, priority 2010, published 2013).

Assays:
[1] = system: HCV; conditions: Jc1-transfected cells, 0, 5, 10 and 20 μM, added 42 h after transfection
Protocol: This example employs a standard bioassay for determining the effect of the cPLA2α inhibitor pyrrolidine-2 on the production of Jc1-transfected cells. The general assay set up is shown in
(§1) FIG. 2. The assay was performed according to standard protocols and materials were purchased from commercial suppliers and used according to respective manuals supplied therewith. Pyrrolidine-2 was added to the cells 42 h after transfection at 42 the indicated final concentrations of 0, 5, 10 and 20 μM.

[2] = system: HCV; conditions: 20 μm pyrrolidine-2 vs untreated cells, FIG. 7
[3] = system: HCV; conditions: 20 μm pyrrolidine-2 vs untreated cells; FIG. 4B
Protocol: (§2) The assay was performed according to standard protocols and materials were purchased from commercial suppliers and used according to respective manuals supplied therewith.

[4] = 20 μm pyrrolidine-2 compared to DMSO; FIG. 5
Protocol: as §2

[5] = system: ApoE; conditions: Mock- and Jc1-transfected cells; 20 μm pyrrolidine-2; FIG. 9
Source text: (§3) A standard ELISA protocol was employed for assessing the relevance of cPLA2α activity for release of lipoproteins carrying ApoB and ApoE.

[6] = system: DENV; conditions: Huh-7.5 cells, DV-R2A, 0, 5, 10 and 20 μM, added 42 h after transfection
Protocol: as §1, with “This example employs a standard bioassay for determining the effect of the cPLA2α inhibitor pyrrolidine-2 on the production of Huh-7.5 cells transfected with dengue virus RNA DV-R2A.” for “FIG. 2.”, “at” for “at 42”

[7] = system: HCV core protein; conditions: lipid droplet fractions; 20 μm pyrrolidine-2 vs untreated cells; FIG. 8A-C
Source text: Standard ELISA and Western Blot protocols were used for the analysis of lipid droplet fractions of untreated cells and cells treated with 20 μm pyrrolidine-2.

[8] = system: DENV; test: Infectivity of DENV, limiting dilution titration assay
Source text: A standard limiting dilution titration assay was employed for assessing the relevance of cPLA2α activity for release of infectious DENV particles.

[9] = system: ApoB; conditions: Mock- and Jc1-transfected cells; 20 μm pyrrolidine-2; FIG. 9
Source text: as §3

With `CC(C)CN(Cc1ccccc1-c1ccccc1)[C@@H]1C[C@@H](CNC(=O)C=Cc2ccc(C=C3SC(=O)NC3=O)cc2)N(C(=O)c2ccccc2C(=O)c2ccc(F)cc2F)C1.Cl` [pyrrolidine-2, N-{(2S,4R)-4-(Biphenyl-2-ylmethyl-isobutyl-amino)-1-[2-(2,4-difluorobenzoyl)-benzoyl]-pyrrolidin-2-ylmethyl}-3-[4-(2,4-dioxothiazolidin-5-ylidenemethyl)-phenyl]acrylamide, HCl] the “RNA replication of HCV” value ([1]; FIG. 3A) was “not affected”, the “release of infectious HCV particles” value ([1]; FIG. 3B) was “potently inhibited in a dose-dependent manner” and the “lowering of intracellular virus titer” value [2] was “about 10 fold”. The “reduction of extracellular virus titers” value [2] was 100 fold, the viral entry [3] was “does not influence viral entry” and the cytotoxicity [4] was “did not show any cytotoxicity”. For the same compound, the “reduction of the quantity of secreted ApoE” value [5] was “more than 50%”, the “RNA replication of DENV” value ([6]; FIG. 11A) was “only slightly affected” and the “release of infectious DENV particles” value ([6]; FIG. 11B) was “potently inhibited in a dose-dependent manner”. The “quantity of lipid droplet associated core protein” value [7] was “reduced”, the “inactivation of released infectious DENV particles” value ([8]; particles produced in the absence of the inhibitor, then treated with 20 μm pyrrolidine-2, FIG. 12B) was “does not inactivate released infectious particles” and the “reduction of the quantity of released infectious DENV particles” value ([8]; transfected Huh-7.5 cells treated with 20 μm pyrrolidine-2, FIG. 12A) was “more than 3 orders of magnitude”. For the same compound, the “reduction of the quantity of secreted ApoB” value [9] was “more than 50%”.
